Earlier results, collected in patent US20050261194A1, “Use of thymulin-like peptides for making pain-relieving medicines” (priority 2001, published 2005).
Where no end group is shown, it is not given here. [ ]: non-standard residue; d: D form. pGlu = O=C1CC[C@@H](C(=O)O)N1

Test system: rat
Conditions: cited from earlier work

Substance: PyroGlu-Ala-Lys-Ser-Gln-Gly-Gly-Ser-Asn ([pGlu]AKSQGGSN) [thymuline]
- effect on hyperalgesia at higher doses (micrograms in the rat, 50-100 μg/kg): reduces hyperalgesia
- effect on hyperalgesia at low dose (nanograms in the rat, 0.2 to 20 μg/kg): induces hyperalgesia
